Peptide text beside a SMILES is read from it. * marks the point of attachment. NHtBu = CC(C)(C)N*

With `NCCC(N)C(=O)O` (stereo unspecified), the logP (in general, a log measure of how a compound divides between an organic and an aqueous phase) was -4.64.

Turning to `COc1ccccc1OC`, the logP turned out to be 1.6.

`CC(C)NNC(=O)COc1cccc(Cl)c1`: the logP was 1.91.

The compound `CCNc1nc(Cl)nc(N(CC)CC)n1` came in with a logP of 3.34.

Compound `CON(C)C(=O)Nc1ccc([N+](=O)[O-])cc1` returned a logP of 1.74.

In the case of `C=CCC1(C2C=CCC2)C(=O)NC(=O)NC1=O` (stereo unspecified), the logP stood at 1.51.

Take `CN(C)C(=O)Nc1ccc(F)cc1`: the logP was determined as 1.13.

`O=[N+]([O-])c1ccsc1` came in with a logP of 1.55.

`Cc1cc(Br)cnc1NS(=O)(=O)c1ccc(N)cc1` returned a logP of 2.05.

The compound `COc1cc2c(c3c1c(=O)c1ccccc1n3C)C=CC(C)(C)O2` showed a logP of 3.67.

Consider `CCC1(C2=CC3CCC(C2)C3)C(=O)NC(=O)NC1=O` (stereo unspecified), for which the logP turned out to be 2.53.

On to `CNC(C)Cc1ccccc1` (stereo unspecified), for which the logP was found to be 2.07.

Compound `CSc1ccc2c(c1)N(CCC1CCCCN1C)c1ccccc1S2` (stereo unspecified) gave a logP of 5.9.

Turning to `C[C@]12CC[C@@H]3c4ccc(O)cc4CC[C@H]3[C@@H]1C[C@@H](O)[C@@H]2O`, the logP came to 2.45.

Take `NC(=O)c1[nH]cnc1N`: the logP is -1.1.

`O=Cc1ccc2c(c1)OCO2` showed a logP of 1.05.

With `CC(=O)Oc1cccc(O)c1`, the logP was 1.23.

Turning to `Oc1cc(Cl)cc(Cl)c1`, the logP came out at 3.62.

`CC(=O)Nc1ccccc1O` showed a logP of 0.72.

On to `O=[N+]([O-])c1ncn(CC(O)CN2CC2)n1` (stereo unspecified), for which the logP is -0.72.

In turn, `CCCCCCCCCC(=O)N1CCCC1=O` gave a logP of 4.33.

In turn, `CC(=O)NC(C)C(=O)NC(Cc1c[nH]c2ccccc12)C(=O)NC(C)C(=O)NC(C)(C)C` (stereo not drawn) (Ac-Ala-Trp-Ala-NHtBu; configuration not given here) registered a logP of 1.26.

`O=C(O)C1CCCCC1` gave a logP of 1.96.

`Cc1ccc(C(N)=O)cc1` returned a logP of 1.18.

For the compound `c1ccc(-c2cnc(-c3ccccc3)o2)cc1`, the logP is 4.67.

`Oc1ccc2ccccc2c1` gave a logP of 2.7.

`C[C@]12CCC(=O)C=C1CC[C@@H]1[C@@H]2CC[C@@]2(C)[C@H]1CC[C@]2(C)O` came in with a logP of 3.36.

On to `CC=CC=CC` (mixture of isomers), for which the logP turned out to be 2.8.

`CN(C)CC(O)c1ccccc1` (stereo unspecified) returned a logP of 1.54.

In turn, `NC(=O)CCCCc1ccccn1` returned a logP of 0.38.

Consider `N#Cc1ccc([N+](=O)[O-])cc1`, for which the logP was found to be 1.19.

In turn, `CC(C)OC(=O)c1cc(O)c(O)c(O)c1` registered a logP of 1.54.

Compound `NC(=O)OCc1ccc(Cl)cc1` showed a logP of 1.97.

Consider `Nc1nc2c(ncn2[C@H]2C[C@H](O)[C@@H](CO)O2)c(=S)[nH]1`, for which the logP is -0.56.

`CS(=O)(=O)c1ccc(C(O)C(CO)NC(=O)C(Cl)Cl)cc1` (stereo unspecified) returned a logP of -0.27.

For the compound `CCCCCCOC(=O)C(CC)C(CO)Cc1cncn1C` (stereo unspecified), the log partition coefficient (logP) is 2.71.

On to `CC(C)=C1C(=O)OC2CC(C)C3C=CC(=O)C3(C)C(O)C12` (stereo unspecified), for which the logP is 1.47.

`CCC1(c2ccccc2)C(=O)NC(=O)N(C(C)C)C1=O` (stereo unspecified) registered a logP of 2.58.

`O=C(O)COc1ccc2c(c1)CCC2` yielded a logP of 2.33.

In the case of `O=C(CBr)NC(CO)C(O)c1ccc([N+](=O)[O-])cc1` (stereo unspecified), the logP was found to be 0.66.

In the case of `CCCCCCOC(N)=O`, the logP was 1.85.

As to `CCN(CC)C(=O)N(C)N=O`, the logP was found to be 1.11.

For `NCCCCCc1ccncc1`, the logP stood at 1.4.

Regarding `C=CCNCC`, the logP is 0.81.

On to `CC(C)COC(=O)n1cnc(CC(NC(=O)C2CCC(=O)N2)C(=O)N2CCCC2C(N)=O)c1` (stereo unspecified), for which the logP was -0.44.

Regarding `CN(O)N=Nc1ccc(C(N)=O)cc1`, the logP is -0.22.

`Nc1nc(N)nc(-c2ccccc2)n1` returned a logP of 1.36.

The compound `COc1ccc(OC)c(N)c1` registered a logP of 1.2.

Regarding `Cc1ccco1`, the logP stood at 1.85.

Regarding `C=CCOC(C)=O`, the logP came out at 0.97.

`CN(C)CC=Cc1ccccc1` displayed a logP of 2.61.

In the case of `CCCCC[N+](=O)[O-]`, the logP amounted to 2.01.

Regarding `CCOC(=O)C(=Cc1cccc(OCC)c1)C(=O)OCC`, the logP amounted to 3.39.

The compound `C[C@]12CC[C@H]3[C@@H](CCC4=CC(=O)CC[C@@H]43)[C@@H]1CC[C@@H]2O` displayed a logP of 2.62.

Take `CCCCOC(=O)c1ccc(C(=O)OCCCC)cc1`: the logP was found to be 5.53.

Consider `CC1(C)O[C@@H]2C[C@H]3[C@@H]4CCC5=CC(=O)C=C[C@]5(C)[C@@]4(F)[C@@H](O)C[C@]3(C)[C@]2(C(=O)CO)O1`, for which the logP came to 2.53.

In the case of `Cc1[nH]cnc1CSCCNC1=NS(=O)(=O)CCN1`, the logP is -0.74.

In turn, `Nc1ccc([N+](=O)[O-])cc1N` returned a logP of 0.88.

The compound `NCCCc1ccccc1` had a logP of 1.83.

`O=NN1CCCCCC1` came in with a logP of 0.92.

`CNC(=O)OCc1cccc(COC(=O)NC)n1` yielded a logP of 0.24.

As for `CCCCC(CC)COC(=O)n1cnc(CC(NC(=O)C2CCC(=O)N2)C(=O)N2CCCC2C(N)=O)c1` (stereo unspecified), the logP is 1.82.

Regarding `c1ccc2cc3ccccc3cc2c1`, the logP was 4.45.

For the compound `CSc1cccc(-c2nc(N)nc(N)n2)c1`, the logP came out at 2.16.

Consider `CCCN(N=O)C(N)=O`, for which the logP stood at 0.3.

`CCC(=O)Nc1ccc(Cl)c(Cl)c1` gave a logP of 3.07.

`CCCCCCCCCC1(c2ccncc2)CCC(=O)NC1=O` (stereo unspecified) displayed a logP of 4.64.

`O=C1C(Cl)=C(Nc2ccccc2)C(=O)c2ccccc21` displayed a logP of 4.22.

Consider `N#Cc1ccc(O)cc1`, for which the logP was found to be […].

On to `CC(=O)CCCc1ccccc1`, for which the logP was found to be 2.42.

The compound `CON(C)C(=O)Nc1ccc2c(c1)Cc1ccccc1-2` returned a logP of 3.67.

The compound `CNC(=O)ON=CC(C)(C)SC` showed a logP of 1.13.

Compound `O=C(Nc1ccccc1)C(F)(F)F` returned a logP of 2.21.

Consider `CCOP(=S)(OCC)Oc1cc(C)nc(C(C)C)n1`, for which the logP is 3.81.

In turn, `N#Cc1cc(-c2ccccc2)nnc1NCCN1CCOCC1` registered a logP of 1.89.

With `CC1CCC(NC(=O)N(CCCl)N=O)CC1` (stereo unspecified), the logP was 3.3.

In turn, `CN(C)C(=O)N(C)N=O` displayed a logP of 0.36.

The compound `COC(=O)c1cccc(N2C(=O)CCC2=O)c1` had a logP of 0.36.

Consider `COC1C(O)CC(OC2C(O)CC(OC3C(O)CC(OC4CCC5(C)C(CCC6C5CC(OC(C)=O)C5(C)C(C7=CC(=O)OC7)CCC65O)C4)OC3C)OC2C)OC1C` (stereo unspecified), for which the logP was found to be 2.87.

On to `CN1CC[C@]23CCCC[C@H]2[C@H]1Cc1ccc(O)cc13`, for which the logP was 3.11.

`CCC(C)NC(=O)C=Cc1ccccc1` (stereo unspecified) yielded a logP of 2.85.

For `Cc1cnc2ccccc2n1`, the logP is 1.61.

For `c1cc2ccsc2cn1`, the logP is 1.74.

For the compound `COC(=O)C(=Cc1ccccc1)C(=O)OC`, the logP amounted to 2.24.

For the compound `CCC(C)c1ccccc1O` (stereo unspecified), the logP worked out at 3.27.

`OCCOCCOCCN1CCC(=C(c2ccccc2)c2ccccc2)CC1` displayed a logP of 3.78.

Turning to `N#Cc1c2ccccc2cc2ccccc12`, the logP came to 4.26.

The compound `CCCCCc1ccc(N)cc1` returned a logP of 3.39.

For the compound `Cc1cc([N+](=O)[O-])cc2c1NC(=O)CN=C2c1ccccc1`, the lipophilicity (logP) came out at 2.44.

`CCCNC(=O)c1ccc(S(N)(=O)=O)cc1`: the logP is 0.51.

In turn, `CCOC(=O)CBr` returned a logP of 1.12.

`Cc1ccc(C(O)c2ccccc2)cc1` (stereo unspecified) had a logP of 3.13.

Consider `COc1cccc(O)c1`, for which the logP worked out at 1.34.

The compound `CC(=O)Nc1c(I)c(C(=O)N[C@H]2C(O)O[C@H](CO)[C@@H](O)[C@@H]2O)c(I)c(N(C)C(C)=O)c1I` (stereo partly specified) had a logP of -1.89.

`NS(=O)(=O)c1ccccc1` displayed a logP of 0.31.

`CC[C@H](C)[C@H](NC(=O)[C@H](Cc1c[nH]c2ccccc12)NC(C)=O)C(=O)NCC(N)=O` (Ac-Trp-Ile-Gly-NH2) returned a logP of 0.62.

The compound `Nc1cc(Cl)c(Cl)c(Cl)c1` displayed a logP of 3.32.

`CCCCCCCCCCCCCC[n+]1ccccc1.[Br-]`: the logP was 1.32.

Compound `CCC(C)C(NC(=O)C(CC(N)=O)NC(C)=O)C(N)=O` (stereo not drawn) (Ac-Asn-Ile-NH2; configuration not given here) showed a logP of -1.43.

Regarding `CCC(C)NP(=O)(OC)Oc1cc(Cl)c(Cl)cc1Cl` (stereo unspecified), the logP is 3.99.

With `CC(C)(Oc1ccccc1)C(=O)N[C@@H]1C(=O)N2[C@@H]1SC(C)(C)[C@@H]2C(=O)O`, the logP was 2.76.

Consider `CCCCCF`, for which the logP amounted to 2.33.

For the compound `c1ncc2nc[nH]c2n1`, the logP was -0.37.

In turn, `O=[N+]([O-])c1ccc(F)cc1` had a logP of 1.8.

Compound `CCC(=O)C1(c2cccc(OC(=O)OCC(C)C)c2)CCN(C)CC1` came in with a logP of 2.38.

As for `ClC(Cl)(Cl)C(Cl)(Cl)Cl`, the logP stood at 4.14.

`COc1ccc(I)cc1Cc1cnc(N)nc1N` had a logP of 2.7.

With `Oc1ccc(Nc2ccccc2)cc1`, the logP was 2.82.

As for `CCCCCCCCN(C)/N=N/c1ccc(C(N)=O)cc1`, the logP worked out at 4.7.

`Cc1cccc(OC(=O)N(C)C)c1` returned a logP of 2.05.

Compound `CCOC(=O)c1ccccc1N` had a log partition coefficient (logP) of 2.57.

Turning to `Cc1ccno1`, the logP amounted to 0.45.

The compound `NC(C(=O)O)c1cccs1` (stereo unspecified) returned a log partition coefficient (logP) of -2.05.

As to `CC12CCC(=O)C=C1CCC1C2C(O)CC2(C)C1CCC2(O)C(=O)COC1OC(CO)C(O)C(O)C1O` (stereo unspecified), the logP came to 0.15.

Compound `ICCI` displayed a logP of 2.71.

`Nc1cc(N=O)ccc1O` registered a logP of 0.03.

On to `Cc1ccc(NC(=O)c2cccnc2)cc1`, for which the lipophilicity (logP) was found to be 2.08.

As to `CC(O)CNCC(C)O` (stereo unspecified), the logP is -0.82.

`CC(=O)Oc1ccccc1[N+](=O)[O-]` displayed a logP of 1.55.

The compound `O=C(O)CC(O)C(=O)O` (stereo unspecified) came in with a logP of -1.26.

Regarding `CC(=O)OCC1=C(C(=O)O)N2C(=O)[C@@H](NC(=O)Cc3cccs3)[C@H]2SC1`, the logP was -0.41.

Regarding `O=C1C=C(N2CC2)C(=O)C(N2CC2)=C1N1CC1`, the log partition coefficient (logP) is -0.13.

`NS(=O)(=O)c1cccc(S(N)(=O)=O)c1` showed a logP of -0.55.

The compound `CCOC(=O)C(=Cc1ccccc1C)C(=O)OCC` showed a logP of 3.22.

Consider `Nc1c([N+](=O)[O-])cc(C(F)(F)F)cc1[N+](=O)[O-]`, for which the logP was found to be 2.29.

On to `O=C1C(=O)c2cccc3cccc1c23`, for which the logP came out at 1.95.

Values taken from the OPERA property sets (Mansouri et al. 2018).
